Numbers after ± are expanded uncertainties.
Tests used:
[1] = Solid-liquid equilibrium temperature; conditions: 100 kPa; Crystal; DTA
[2] = Molar enthalpy of transition or fusion; conditions: Crystal; DSC

## O=P(Nc1ccccc1)(Oc1ccccc1)Oc1ccccc1 [diphenyl anilinophosphonate]
[1]
  Solid-liquid equilibrium temperature: 406.91 ± 0.32 K
[2]
  Molar enthalpy of transition or fusion: 0.0716 ± 0.17 kJ/mol

Source: the NIST ThermoML archive (doi:10.1016/j.fluid.2015.03.036)
